What was measured:
Assay type in all cases: cell-based
[1] = test system: MCF7 cells transfected with siRNA directed against RAD51D; experiment: Olaparib sensitivity after RAD51D silencing, cell viability (Cell TitreGlo), MCF7; details: siRAD51D vs siCONTROL and siBRCA2, olaparib titration for 7 days, FIG. 3B
Source text: (§1) This method has clinical utility both for individuals with cancer and their relatives. Cancer patients with RAD51D mutations may benefit from specific therapies such as Poly (ADP-Ribose) Polymerase (PARP) inhibitors, which have shown efficacy in patients with impairment of HR due to mutations in BRCA1 or BRCA2. To investigate this we used RNA interference (RNAi) and assessed the relationship between RAD51D loss of function and the sensitivity of tumor cells to a clinical PARP inhibitor, olaparib (AstraZeneca) 4-[(3-[(4-cyclopropylcarbonyl)piperazin-4-yl]carbonyl)-4-fluorophenyl]methyl(2H)phthalazin-1-one. Referring now to FIG. 3. The effect of RAD51D silencing on olaparib sensitivity. CAL51 (FIG. 3A) or MCF7 (FIG. 3B) cells were transfected with siCONTROL, siRNA directed against RAD51D or siRNA directed against BRCA2 and then treated with olaparib for 7 days before assaying for cell viability. Wild-type CHO cells or CHO cells mutated in RAD51D were treated with olaparib for 7 days before assaying for cell viability (FIG. 3C).
(§2) Non-silencing BRCA2 and RAD51D SIGENOME siRNAs (Dharmacon, Lafayette, Colo., USA) were used. […] After 7 days continuous culture, cell viability was estimated using Cell TitreGlo reagent (Promega Madison, Wis., USA) and surviving fractions calculated as previously described.

[2] = test system: CHO cells mutated in RAD51D; experiment: Olaparib sensitivity of wild-type versus RAD51D mutated CHO cells, cell viability; details: CHO RAD51D WT (51D1.3 clone) vs RAD51D deficient CHO (51D1 clone), olaparib for 7 days, FIG. 3C
Source text: as §1, §2

[3] = test system: CAL51 cells transfected with siRNA directed against RAD51D; experiment: Olaparib sensitivity after RAD51D silencing, cell viability (Cell TitreGlo), CAL51; details: siRAD51D vs siCONTROL and siBRCA2, olaparib titration for 7 days, FIG. 3A
Source text: as §1, §2

O=C(c1cc(Cc2n[nH]c(=O)c3ccccc23)ccc1F)N1CCN(C(=O)C2CC2)CC1 [olaparib, 4-[(3-[(4-cyclopropylcarbonyl)piperazin-4-yl]carbonyl)-4-fluorophenyl]methyl(2H)phthalazin-1-one]
olaparib sensitivity (Surviving Fraction) [1]: olaparib sensitivity of a magnitude similar to that achieved using silencing of BRCA2
olaparib sensitivity (Surviving Fraction) [2]: RAD51D selective effect
olaparib sensitivity (Surviving Fraction) ([2]; listed as Olaparib): particularly effective in causing the death of cells that have an inactivating mutation of RAD51D
olaparib sensitivity (Surviving Fraction) [3]: olaparib sensitivity of a magnitude similar to that achieved using silencing of BRCA2

— US9512486B2, “Materials, methods, and systems for treating cancer” (The Institute of Cancer Research: Royal Cancer Hospital, priority 2012, dated 2016)
